Measured values as given in ChEMBL document CHEMBL1151943, “The glutamate receptor GluR5 agonist (S)-2-amino-3-(3-hydroxy-7,8-dihydro-6H-cyclohepta[d]isoxazol-4-yl)propionic acid and the 8-methyl analogue: synthesis, molecular pharmacology, and biostructural characterization” (J Med Chem, 2009).

Experiments:
Glutamate receptor 4 [1] = target: T1, Glutamate receptor 4 (Rattus norvegicus, UniProt P19493); test: Displacement of [3H]AMPA from rat recombinant GluR4 flop isoform expressed in baculovirus infected Sf9 cells
T1 sequence (P19493 whole entry, canonical isoform): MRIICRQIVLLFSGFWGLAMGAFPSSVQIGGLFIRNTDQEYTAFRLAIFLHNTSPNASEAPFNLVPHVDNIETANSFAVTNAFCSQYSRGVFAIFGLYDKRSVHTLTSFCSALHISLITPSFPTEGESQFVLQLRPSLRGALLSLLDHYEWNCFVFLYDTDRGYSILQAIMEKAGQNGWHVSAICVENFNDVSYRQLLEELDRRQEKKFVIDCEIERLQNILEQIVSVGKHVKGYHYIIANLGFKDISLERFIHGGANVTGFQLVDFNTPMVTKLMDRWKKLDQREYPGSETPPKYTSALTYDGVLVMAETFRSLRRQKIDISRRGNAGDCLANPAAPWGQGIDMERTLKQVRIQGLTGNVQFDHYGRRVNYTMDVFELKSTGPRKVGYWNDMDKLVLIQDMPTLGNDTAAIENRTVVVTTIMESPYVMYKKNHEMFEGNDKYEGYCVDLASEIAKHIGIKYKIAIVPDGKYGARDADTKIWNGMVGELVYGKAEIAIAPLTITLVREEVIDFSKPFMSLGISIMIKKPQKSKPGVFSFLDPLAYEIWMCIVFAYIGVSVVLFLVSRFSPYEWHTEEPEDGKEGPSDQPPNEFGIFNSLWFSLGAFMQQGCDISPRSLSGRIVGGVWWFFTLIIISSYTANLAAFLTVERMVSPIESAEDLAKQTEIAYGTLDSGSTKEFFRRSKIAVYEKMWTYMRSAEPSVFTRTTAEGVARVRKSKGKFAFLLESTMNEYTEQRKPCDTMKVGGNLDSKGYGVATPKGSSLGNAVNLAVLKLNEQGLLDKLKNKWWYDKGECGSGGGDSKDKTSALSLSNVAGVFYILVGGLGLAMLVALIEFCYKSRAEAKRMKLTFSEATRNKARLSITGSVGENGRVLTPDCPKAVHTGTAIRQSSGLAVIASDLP

Glutamate receptor 1 [2] = target: T2, Glutamate receptor 1 (Rattus norvegicus, UniProt P19490); test: Agonist activity at rat recombinant GluR1 flip isoform expressed in HEK293 cells assessed as increase in intracellular calcium level by Fluo-4/AM assay; format: functional, cell-based
T2 sequence (P19490 whole entry, canonical isoform): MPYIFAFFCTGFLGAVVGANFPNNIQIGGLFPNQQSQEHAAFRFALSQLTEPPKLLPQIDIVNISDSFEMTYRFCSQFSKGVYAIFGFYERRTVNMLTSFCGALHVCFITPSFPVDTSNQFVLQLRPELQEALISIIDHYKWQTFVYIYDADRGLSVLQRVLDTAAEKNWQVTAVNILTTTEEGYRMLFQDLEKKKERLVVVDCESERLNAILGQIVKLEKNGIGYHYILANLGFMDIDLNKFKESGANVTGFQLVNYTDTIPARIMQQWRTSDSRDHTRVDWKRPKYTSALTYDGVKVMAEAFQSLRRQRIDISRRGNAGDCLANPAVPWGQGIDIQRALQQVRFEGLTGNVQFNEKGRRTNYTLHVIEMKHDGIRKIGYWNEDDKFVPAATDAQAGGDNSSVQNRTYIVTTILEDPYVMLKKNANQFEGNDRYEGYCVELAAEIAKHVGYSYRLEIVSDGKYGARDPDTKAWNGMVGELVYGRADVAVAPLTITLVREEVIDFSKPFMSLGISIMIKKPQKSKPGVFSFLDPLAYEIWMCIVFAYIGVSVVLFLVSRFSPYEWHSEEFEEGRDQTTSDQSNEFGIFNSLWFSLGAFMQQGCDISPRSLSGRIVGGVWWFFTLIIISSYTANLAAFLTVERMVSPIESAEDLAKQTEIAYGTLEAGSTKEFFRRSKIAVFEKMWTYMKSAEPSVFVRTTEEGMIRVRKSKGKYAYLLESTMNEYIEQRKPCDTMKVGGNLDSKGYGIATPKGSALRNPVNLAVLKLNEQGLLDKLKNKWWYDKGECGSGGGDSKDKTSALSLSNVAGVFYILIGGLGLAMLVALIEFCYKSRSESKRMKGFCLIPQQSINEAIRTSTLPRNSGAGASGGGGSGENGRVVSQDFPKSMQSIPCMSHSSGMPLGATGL

Glutamate receptor 3 [3] = target: T3, Glutamate receptor 3 (Rattus norvegicus, UniProt P19492); test: Agonist activity at rat recombinant GluR3 flip isomer expressed in HEK293 cells assessed as increase in intracellular calcium level by Fluo-4/AM assay; format: functional, cell-based
T3 sequence (P19492 whole entry, canonical isoform): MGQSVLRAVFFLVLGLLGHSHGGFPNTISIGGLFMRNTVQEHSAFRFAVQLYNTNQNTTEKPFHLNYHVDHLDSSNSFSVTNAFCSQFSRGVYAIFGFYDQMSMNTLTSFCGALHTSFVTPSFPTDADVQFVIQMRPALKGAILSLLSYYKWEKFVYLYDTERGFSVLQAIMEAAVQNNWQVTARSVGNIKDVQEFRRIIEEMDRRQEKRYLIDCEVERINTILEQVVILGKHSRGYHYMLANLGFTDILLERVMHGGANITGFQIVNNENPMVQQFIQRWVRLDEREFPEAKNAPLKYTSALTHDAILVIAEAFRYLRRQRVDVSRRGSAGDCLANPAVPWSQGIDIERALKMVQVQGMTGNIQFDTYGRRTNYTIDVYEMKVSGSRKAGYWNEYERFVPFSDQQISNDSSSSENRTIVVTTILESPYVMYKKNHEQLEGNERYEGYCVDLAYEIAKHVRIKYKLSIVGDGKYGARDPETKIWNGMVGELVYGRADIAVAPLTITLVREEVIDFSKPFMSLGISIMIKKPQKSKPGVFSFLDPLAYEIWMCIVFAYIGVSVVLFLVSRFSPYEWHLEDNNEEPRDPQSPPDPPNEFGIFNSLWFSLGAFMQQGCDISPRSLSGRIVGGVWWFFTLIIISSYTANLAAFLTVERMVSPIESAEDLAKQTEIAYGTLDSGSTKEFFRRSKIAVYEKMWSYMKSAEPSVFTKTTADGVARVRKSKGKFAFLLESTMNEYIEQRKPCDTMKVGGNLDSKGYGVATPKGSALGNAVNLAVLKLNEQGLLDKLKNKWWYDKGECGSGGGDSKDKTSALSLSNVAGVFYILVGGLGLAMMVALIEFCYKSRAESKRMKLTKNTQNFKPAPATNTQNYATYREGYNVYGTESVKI

Glutamate receptor 1 [4] = target: T2, Glutamate receptor 1; test: Displacement of [3H]AMPA from rat recombinant GluR1 flop isoform expressed in baculovirus infected Sf9 cells
Glutamate receptor 2 [5] = target: T4, Glutamate receptor 2 (Rattus norvegicus, UniProt P19491)
T4 sequence (P19491 whole entry): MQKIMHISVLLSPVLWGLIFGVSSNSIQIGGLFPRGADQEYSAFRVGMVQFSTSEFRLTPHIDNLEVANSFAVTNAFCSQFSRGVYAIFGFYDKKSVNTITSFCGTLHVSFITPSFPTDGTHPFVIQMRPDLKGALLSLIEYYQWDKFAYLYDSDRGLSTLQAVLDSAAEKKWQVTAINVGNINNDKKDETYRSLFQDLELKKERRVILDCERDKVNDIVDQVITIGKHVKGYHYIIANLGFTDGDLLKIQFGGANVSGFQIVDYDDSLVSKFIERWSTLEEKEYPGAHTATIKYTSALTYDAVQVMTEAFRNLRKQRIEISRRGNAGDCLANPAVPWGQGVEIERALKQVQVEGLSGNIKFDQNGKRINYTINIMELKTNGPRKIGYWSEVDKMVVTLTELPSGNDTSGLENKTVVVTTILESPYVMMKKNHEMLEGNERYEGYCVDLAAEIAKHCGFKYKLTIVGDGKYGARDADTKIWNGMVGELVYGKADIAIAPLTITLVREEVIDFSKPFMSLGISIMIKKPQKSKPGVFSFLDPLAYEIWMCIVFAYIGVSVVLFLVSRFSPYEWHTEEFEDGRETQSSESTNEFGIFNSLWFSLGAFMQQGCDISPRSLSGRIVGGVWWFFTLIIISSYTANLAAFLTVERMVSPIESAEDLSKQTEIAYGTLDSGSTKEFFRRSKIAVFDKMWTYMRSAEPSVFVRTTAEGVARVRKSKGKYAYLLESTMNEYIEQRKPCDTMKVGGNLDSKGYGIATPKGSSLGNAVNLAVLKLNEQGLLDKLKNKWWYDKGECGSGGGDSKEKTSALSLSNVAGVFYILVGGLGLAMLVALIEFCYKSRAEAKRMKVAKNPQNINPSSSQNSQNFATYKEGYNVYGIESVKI
Description: Agonist activity at rat recombinant GluR2(Q) RNA-edited isoform expressed in HEK293 cells assessed as increase in intracellular calcium level by Fluo-4/AM assay

Glutamate NMDA receptor [6] = test: Displacement of […] from NMDA receptor in rat cortical synaptosomes; format: subcellular, Brain
Glutamate receptor 2 [7] = target: T4, Glutamate receptor 2; test: Displacement of [3H]AMPA from rat recombinant GluR2(R) RNA-edited flop isoform expressed in baculovirus infected Sf9 cells
Glutamate receptor 1 [8] = target: T2, Glutamate receptor 1; test: Agonist activity at ConA-treated rat GluR1 flip isoform expressed in Xenopus laevis oocytes assessed as glutamic acid-induced maximal current by two-electrode voltage clamp method; format: functional, cell-based, Oocyte
Glutamate receptor 3 [9] = target: T3, Glutamate receptor 3; test: Displacement of [3H]AMPA from rat recombinant GluR3 flop isoform expressed in baculovirus infected Sf9 cells
[10] = target: Glutamate receptor 1 (Rattus norvegicus) (UniProt P19490); test: Agonist activity at rat recombinant GluR1 flip isoform expressed in HEK293 cells assessed as increase in intracellular calcium level by Fluo-4/AM assay relative to glutamic acid; format: functional, cell-based
Sequence of Glutamate receptor 1 (Rattus norvegicus) (P19490 whole entry, canonical isoform): as the sequence (P19490 whole entry, canonical isoform) above

[11] = target: Glutamate receptor 3 (Rattus norvegicus) (UniProt P19492); test: Agonist activity at rat recombinant GluR3 flip isomer expressed in HEK293 cells assessed as increase in intracellular calcium level by Fluo-4/AM assay relative to glutamic acid; format: functional, cell-based
Sequence of Glutamate receptor 3 (Rattus norvegicus) (P19492 whole entry): as the sequence (P19492 whole entry, canonical isoform) above

[12] = target: Glutamate receptor 4 (Rattus norvegicus) (UniProt P19493); test: Agonist activity at rat recombinant GluR4 flip isomer expressed in HEK293 cells assessed as increase in intracellular calcium level by Fluo-4/AM assay relative to glutamic acid; format: functional, cell-based
Sequence of Glutamate receptor 4 (Rattus norvegicus) (P19493 whole entry): as the sequence (P19493 whole entry, canonical isoform) above

[13] = Displacement of [3H]AMPA from AMPA receptor in rat cortical synaptosomes; format: subcellular, Brain
[14] = Displacement of [3H]KA from KA receptor in rat cortical synaptosomes; format: subcellular, Brain
Glutamate receptor 4 [15] = target: T1, Glutamate receptor 4; test: Agonist activity at rat recombinant GluR4 flip isomer expressed in HEK293 cells assessed as increase in intracellular calcium level by Fluo-4/AM assay; format: functional, cell-based
Glutamate NMDA receptor [16] = test: Displacement of [3H]CGP from NMDA receptor in rat cortical synaptosomes; format: subcellular, Brain
[17] = target: T5, Glutamate receptor ionotropic, kainate 1 (Rattus norvegicus, UniProt P22756); test: Displacement of [3H]SYM from rat recombinant GluR5(Q) RNA-edited isoform expressed in baculovirus infected Sf9 cells
T5 sequence (P22756 whole entry, canonical isoform): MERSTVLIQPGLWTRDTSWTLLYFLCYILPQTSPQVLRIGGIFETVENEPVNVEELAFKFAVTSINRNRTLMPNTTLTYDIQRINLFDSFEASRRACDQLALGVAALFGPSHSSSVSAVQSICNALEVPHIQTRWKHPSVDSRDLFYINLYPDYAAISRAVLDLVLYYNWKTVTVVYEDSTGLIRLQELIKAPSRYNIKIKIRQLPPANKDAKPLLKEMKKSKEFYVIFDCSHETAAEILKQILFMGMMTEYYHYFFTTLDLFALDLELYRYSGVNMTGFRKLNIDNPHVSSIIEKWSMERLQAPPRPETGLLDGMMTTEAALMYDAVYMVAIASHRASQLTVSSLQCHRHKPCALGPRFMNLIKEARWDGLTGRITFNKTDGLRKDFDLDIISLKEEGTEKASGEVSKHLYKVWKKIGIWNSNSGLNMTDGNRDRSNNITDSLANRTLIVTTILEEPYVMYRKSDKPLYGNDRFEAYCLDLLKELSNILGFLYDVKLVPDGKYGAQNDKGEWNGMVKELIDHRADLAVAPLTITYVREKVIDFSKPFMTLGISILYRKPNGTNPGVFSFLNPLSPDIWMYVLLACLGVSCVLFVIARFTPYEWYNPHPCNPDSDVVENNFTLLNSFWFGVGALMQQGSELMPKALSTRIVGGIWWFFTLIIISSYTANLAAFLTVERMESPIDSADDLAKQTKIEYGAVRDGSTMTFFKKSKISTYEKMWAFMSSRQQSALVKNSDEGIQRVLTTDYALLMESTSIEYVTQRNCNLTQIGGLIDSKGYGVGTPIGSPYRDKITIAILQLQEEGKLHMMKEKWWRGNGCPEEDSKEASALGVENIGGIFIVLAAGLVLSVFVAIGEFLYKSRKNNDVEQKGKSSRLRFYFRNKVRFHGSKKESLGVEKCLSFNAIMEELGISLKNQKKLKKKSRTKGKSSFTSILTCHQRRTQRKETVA

[18] = target: T5, Glutamate receptor ionotropic, kainate 1
Description: Agonist activity at rat recombinant GluR5(Q) RNA-edited isoform expressed in HEK293 cells assessed as increase in intracellular calcium level by Fluo-4/AM assay

[19] = target: Glutamate receptor ionotropic, kainate 3 (Rattus norvegicus, UniProt P42264); test: Displacement of [3H]SYM from rat recombinant GluR7A expressed in baculovirus infected Sf9 cells
[20] = target: Glutamate NMDA receptor; Grin1/Grin2a (Rattus norvegicus, UniProt P35439+Q00959); test: Agonist activity at ConA-treated rat NR1/NR2A expressed in Xenopus laevis oocytes assessed as glycine-induced maximal current by two-electrode voltage clamp method; format: functional, cell-based, Oocyte
[21] = target: T6, Glutamate receptor ionotropic, kainate 2 (Rattus norvegicus, UniProt P42260); test: Displacement of [3H]KA from rat recombinant GluR6(VCR) RNA-edited isoform expressed in baculovirus infected Sf9 cells
[22] = target: T6, Glutamate receptor ionotropic, kainate 2; test: Agonist activity at rat recombinant GluR6(Q) RNA-edited isoform expressed in HEK293 cells assessed as increase in intracellular calcium level by Fluo-4/AM assay; format: functional, cell-based
[23] = target: T5, Glutamate receptor ionotropic, kainate 1; test: Agonist activity at ConA-treated rat GluR5(Q) RNA-edited isoform expressed in Xenopus laevis oocytes assessed as glutamic acid-induced maximal current by two-electrode voltage clamp method; format: functional, cell-based, Oocyte

Compound | Ki (Glutamate receptor 4 [1]) | EC50 (Glutamate receptor 1 [2]) | EC50 (Glutamate receptor 3 [3]; read-out: EC50) | Ki (Glutamate receptor 1 [4]) | EC50 (Glutamate receptor 2 [5]) | Ki (Glutamate receptor 2 [7]) | EC50 (Glutamate receptor 1 [8]) | Ki (Glutamate receptor 3 [9]) | Activity [10] | Activity [11] | Activity [12] | IC50 [13] | IC50 [14] | Ki (Glutamate NMDA receptor [16]) | EC50 (Glutamate receptor 4 [15]; read-out: EC50) | further results
CC(C)(C)c1o[nH]c(=O)c1C[C@H](N)C(=O)O | 2.14 µM | 730 µM | 630 µM | 2.78 µM | > 1000 µM | 1.66 µM | 62 µM | 2.04 µM |  |  |  |  |  |  |  | Ki (Glutamate NMDA receptor [6]): > 100 µM
CC(C)(C)c1onc(O)c1C[C@H](N)C(=O)O |  |  |  |  |  |  |  |  | 101% | 100% | 102% | 1.8 µM | 23 µM |  |  | EC50 (Glutamate receptor 4 [15]; hek293, read-out: EC50): 150 µM
N[C@@H](CC1=CCCCc2onc(O)c21)C(=O)O | 0.202 µM | 32 µM | 13 µM | 0.232 µM | 92 µM | 0.175 µM | 4.5 µM | 0.173 µM | 28% | 54% | 79% | 0.28 µM | 1.6 µM | > 100 µM | 6.7 µM | 
CC1CCC=C(C[C@H](N)C(=O)O)c2c(O)noc21 (mixture of isomers) | 2.2 µM | 70 µM | 48 µM | 1.55 µM | 160 µM | 6.31 µM | 70 µM | 1.11 µM | 29% | 46% | 68% | 9.7 µM | 8.3 µM | > 100 µM | 35 µM | Ki [17]: 0.00508 µM; EC50 [18]: 0.86 µM; Ki [19]: 1.38 µM; EC50 (Glutamate receptor 3 [3]; read-out: pEC50 (converted)): 63.1 µM; EC50 [20]: > 1000 µM; Ki [21]: > 100 µM; EC50 (Glutamate receptor 4 [15]; read-out: pEC50 (converted)): 158 µM; EC50 [22]: > 1000 µM; EC50 [23]: 0.24 µM
Cc1onc(O)c1C[C@H](N)C(=O)O [(S)-AMPA] |  |  |  |  |  |  |  |  |  |  |  | 0.039 µM | > 100 µM |  |  | 
C=C(C)[C@H]1CN[C@H](C(=O)O)[C@H]1CC(=O)O [KAINIC ACID] |  |  |  |  |  |  |  |  | 18% | 45% | 55% |  |  |  | 47 µM | 
